According to ChEMBL document CHEMBL4270538, “Targeting prohibitin with small molecules to promote melanogenesis and apoptosis in melanoma cells” (Eur J Med Chem, 2018):
The source made the active and inactive calls. No cut-off for these calls is given here.

How the values were obtained:
[1] = target: Prohibitin-2 (Homo sapiens) (UniProt Q99623); assay: Binding affinity to PHB2 in human HBL cells assessed as upregulation of MITF protein expression at 1 to 10 uM after 24 hrs by Western blot analysis; type: cell-based
Sequence of Prohibitin-2 (Homo sapiens) (Q99623 whole entry): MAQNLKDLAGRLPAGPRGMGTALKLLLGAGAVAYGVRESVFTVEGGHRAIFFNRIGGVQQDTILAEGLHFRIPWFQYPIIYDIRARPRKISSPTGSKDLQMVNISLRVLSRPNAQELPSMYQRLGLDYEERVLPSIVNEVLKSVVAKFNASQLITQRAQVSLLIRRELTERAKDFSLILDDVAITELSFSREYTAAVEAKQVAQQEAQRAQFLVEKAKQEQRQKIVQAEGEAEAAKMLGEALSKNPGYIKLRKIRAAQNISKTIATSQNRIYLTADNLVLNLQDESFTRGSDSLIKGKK

HL-60 [2] = assay: Inhibition of cell proliferation in human HL60 cells after 72 hrs by MTS assay; type: functional, cell-based; details: HL-60, 72 h
KB [3] = assay: Inhibition of cell proliferation in human KB cells at 1 uM after 72 hrs by MTS assay relative to control; type: functional
HBL [4] = assay: Inhibition of cell proliferation in human HBL cells at 1 uM after 72 hrs by MTS assay relative to control; type: functional
KB [5] = assay: Inhibition of cell proliferation in human KB cells at 10 uM after 72 hrs by MTS assay relative to control; type: functional
[6] = Inhibition of cell proliferation in human EPC cells at 10 uM after 72 hrs by MTS assay relative to control; type: functional
LNCaP [7] = assay: Inhibition of cell proliferation in human LNCAP cells at 1 uM after 72 hrs by MTS assay relative to control; type: functional
PC-3 [8] = assay: Inhibition of cell proliferation in human PC3 cells at 1 uM after 72 hrs by MTS assay relative to control; type: functional; details: PC-3, 72 h
[9] = target: Prohibitin-2 (Homo sapiens) (UniProt Q99623); assay: Binding affinity to PHB2 in human HBL cells assessed as upregulation of tyrosinase protein expression at 1 to 10 uM after 24 hrs by Western blot analysis; type: cell-based
HCT-116 [10] = assay: Inhibition of cell proliferation in human HCT116 cells at 10 uM after 72 hrs by MTS assay relative to control; type: functional; details: HCT-116, 72 h
PC-3 [11] = assay: Inhibition of cell proliferation in human PC3 cells at 10 uM after 72 hrs by MTS assay relative to control; type: functional; details: PC-3, 72 h
[12] = target: T1, Prohibitin 1 (Homo sapiens) (UniProt P35232); assay: Downregulation of PHB1 in human HBL cells at 1 to 10 uM after 24 hrs by Western blot analysis; type: cell-based
T1 sequence (whole entry): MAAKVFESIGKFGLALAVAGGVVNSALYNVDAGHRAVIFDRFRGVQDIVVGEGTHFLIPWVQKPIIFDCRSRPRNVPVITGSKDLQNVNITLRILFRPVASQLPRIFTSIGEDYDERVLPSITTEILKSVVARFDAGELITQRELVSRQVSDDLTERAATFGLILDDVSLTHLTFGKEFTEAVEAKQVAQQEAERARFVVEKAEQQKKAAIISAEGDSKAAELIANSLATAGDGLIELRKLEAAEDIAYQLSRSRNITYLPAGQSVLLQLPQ

[13] = target: Prohibitin-2 (Homo sapiens) (UniProt Q99623); assay: Induction of PHB2-mediated melanogenesis in human HBL cells assessed as pigmentation at 10 uM after 10 days relative to control; type: cell-based
HT-29 [14] = assay: Inhibition of cell proliferation in human HT-29 cells at 1 uM after 72 hrs by MTS assay relative to control; type: functional; details: HT-29, 72 h
KB [15] = assay: Inhibition of cell proliferation in human KB cells after 72 hrs by MTS assay; type: functional, cell-based
[16] = target: Prohibitin-2 (Homo sapiens) (UniProt Q99623); assay: Binding affinity to PHB2 in human HBL cells assessed as LC3-2 accumulation at 1 to 10 uM after 24 hrs by Western blot analysis; type: cell-based
HL-60 [17] = assay: Inhibition of cell proliferation in human HL60 cells at 1 uM after 72 hrs by MTS assay relative to control; type: functional; details: HL-60, 72 h
[18] = target: Prohibitin-2 (Homo sapiens) (UniProt Q99623); assay: Induction of PHB2-mediated melanogenesis in human HBL cells assessed as pigmentation at 1 uM after 10 days relative to control; type: cell-based
[19] = Inhibition of cell proliferation in human EPC cells at 1 uM after 72 hrs by MTS assay relative to control; type: functional
MCF7 [20] = assay: Inhibition of cell proliferation in human MCF7 cells at 10 uM after 72 hrs by MTS assay relative to control; type: functional; details: MCF7, 72 h
[21] = target: RAC-alpha serine/threonine-protein kinase (Homo sapiens) (UniProt P31749); assay: Inhibition of Akt phosphorylation in human HBL cells at 1 to 10 uM after 24 hrs by Western blot analysis; type: cell-based
Sequence of RAC-alpha serine/threonine-protein kinase (Homo sapiens) (P31749 whole entry): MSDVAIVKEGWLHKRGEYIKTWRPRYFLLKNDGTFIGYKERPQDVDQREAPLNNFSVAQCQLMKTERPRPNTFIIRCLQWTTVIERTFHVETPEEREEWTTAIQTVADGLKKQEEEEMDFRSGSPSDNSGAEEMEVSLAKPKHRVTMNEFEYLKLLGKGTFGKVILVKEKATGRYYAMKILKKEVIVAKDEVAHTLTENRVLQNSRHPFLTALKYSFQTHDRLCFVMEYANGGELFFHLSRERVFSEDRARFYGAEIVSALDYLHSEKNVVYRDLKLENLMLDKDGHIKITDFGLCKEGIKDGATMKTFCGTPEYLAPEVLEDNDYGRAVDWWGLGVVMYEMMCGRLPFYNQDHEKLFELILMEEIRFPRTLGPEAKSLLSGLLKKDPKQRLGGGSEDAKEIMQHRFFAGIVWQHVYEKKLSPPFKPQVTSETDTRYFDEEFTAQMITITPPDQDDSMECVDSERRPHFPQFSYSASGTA

HL-60 [22] = assay: Inhibition of cell proliferation in human HL60 cells at 10 uM after 72 hrs by MTS assay relative to control; type: functional; details: HL-60, 72 h
HBL [23] = assay: Inhibition of cell proliferation in human HBL cells at 10 uM after 72 hrs by MTS assay relative to control; type: functional
MCF7 [24] = assay: Inhibition of cell proliferation in human MCF7 cells at 1 uM after 72 hrs by MTS assay relative to control; type: functional; details: MCF7, 72 h
LNCaP [25] = assay: Inhibition of cell proliferation in human LNCAP cells at 10 uM after 72 hrs by MTS assay relative to control; type: functional
[26] = target: Prohibitin-2 (Homo sapiens) (UniProt Q99623); assay: Binding affinity to PHB2 in human HBL cells assessed as upregulation of ERK phosphorylation at 1 to 10 uM after 24 hrs by Western blot analysis; type: cell-based
HT-29 [27] = assay: Inhibition of cell proliferation in human HT-29 cells at 10 uM after 72 hrs by MTS assay relative to control; type: functional; details: HT-29, 72 h
HCT-116 [28] = assay: Inhibition of cell proliferation in human HCT116 cells at 1 uM after 72 hrs by MTS assay relative to control; type: functional; details: HCT-116, 72 h

Activity [1]: Active | IC50 (HL-60 [2]): 15 µM | Activity [9]: Active | Activity [12]: Active | fold change (FC) [13]: 1.25 | IC50 (KB [15]): 33 µM | Activity [16]: Active | fold change (FC) [18]: 1.05 | inhibition [21]: Active | Activity [26]: Active
SMILES: NCCOCCOCCNc1nc(NCc2cccc(F)c2)nc(Oc2c(F)c(F)c(F)c(F)c2F)n1
inhibition at 1 µM (KB [3]): 29% | inhibition at 1 µM (HBL [4]): 9% | inhibition at 10 µM (KB [5]): 89% | inhibition at 10 µM [6]: 58% | inhibition at 1 µM (LNCaP [7]): 11% | inhibition at 1 µM (PC-3 [8]): 15% | inhibition at 10 µM (HCT-116 [10]): 36% | inhibition at 10 µM (PC-3 [11]): 52% | inhibition at 1 µM (HT-29 [14]): 12% | inhibition at 1 µM (HL-60 [17]): 31% | inhibition at 1 µM [19]: 27% | inhibition at 10 µM (MCF7 [20]): 27% | inhibition at 10 µM (HL-60 [22]): 59% | inhibition at 10 µM (HBL [23]): 18% | inhibition at 1 µM (MCF7 [24]): 11% | inhibition at 10 µM (LNCaP [25]): 32% | inhibition at 10 µM (HT-29 [27]): 20% | inhibition at 1 µM (HCT-116 [28]): 10%
